# Measurements as given in US7241785B2, “Five-membered heterocyclic alkanoic acid derivative” (Takeda Pharmaceutical Company Limited, priority 2001, dated 2007).
# Key:
# KKA^y mice [1] = experiment: Hypoglycemic and hypolipidemic (hypotriglyceridemic) actions in mice; type: in vivo; details: Mus musculus, po, 96 h, 0.01% in powdery diet, four days
# Procedure: Hypoglycemic and Hypolipidemic (Hypotriglyceridemic) Actions in Mice
# Test compounds were mixed in a powdery diet (CE-2, Japan Clea) at the concentration of 0.01%, and freely given to KKA^y mice (11 to 12 weeks old, 5 mice per group), a model of type 2 diabetes mellitus, for four days. During this period, water was given freely. Blood was sampled from orbital venous plexus, and glucose and triglyceride levels in plasma separated from the blood were determined enzymatically using L type Wako Glu2 (Wako Pure Chemical Industries, Ltd.) or L type Wako TG.H (Wako Pure Chemical Industries, Ltd.), respectively.
# In the Table, “hypoglycemic action (%)” represents a percent reduction (%) of the blood glucose level in the treatment group when the blood glucose level in the non-treatment group is taken as 100%. In addition, “hypolipidemic action (%)” represents a percent reduction (%) of the blood triglyceride level in the treatment group when the blood triglyceride level in the non-treatment group is taken as 100%.
# KKA^y mice [2] = experiment: Total cholesterol lowering action and plasma anti-arteriosclerosis index-enhancing action in mice; type: in vivo; details: Mus musculus, po, 96 h, 0.01% in powdery diet, four days
# Procedure: Total Cholesterol Lowering Action and Plasma Anti-Arteriosclerosis Index-Enhancing Action in Mice
# Test compounds were mixed in a powdery diet (CE-2, Japan Clea concentration of 0.01%, and freely given to KKA^y mice (11 to 12 weeks old, 5 mice per group), a model of type 2 diabetes mellitus, for four days. During this period, water was given freely. Blood was sampled from orbital venous plexus, and components in plasma separated from the blood were determined. Total cholesterol levels were determined using L type Wako Cholesterol (Wako Pure Chemical Industries, Ltd.). Precipitation reagent for HDL cholesterol was added to a part of the plasma to precipitate non-HDL lipoprotein, and cholesterol (HDL cholesterol) in the resulting supernatant was determined. The plasma anti-arteriosclerosis index [(HDL cholesterol/total cholesterol)×100] was calculated using these cholesterol levels.
# In the Table, “total cholesterol lowering action (%)” represents a percent reduction (%) of the total cholesterol level in the treatment group when the total cholesterol level in the non-treatment group is taken as 100%. In addition, “plasma anti-arteriosclerosis index-enhancing action (%)” represents a percent increase (%) of the plasma anti-arteriosclerosis index in the treatment group when the plasma anti-arteriosclerosis index in the non-treatment group is taken as 100%.
# PPARδ-RXRα heterodimer [3] = biological target: T1, PPARδ-RXRα heterodimer (Homo sapiens, UniProt Q03181); experiment: PPARδ-RXRα heterodimer ligand activity (luciferase reporter, PPARδ:RXRα:4ERPP/CHO-K1 cells); type: cell-based; parameters: expressed in transfected cells; details: concentration for 50% of maximum fold induction of luciferase, 48 hrs
# T1 sequence (Q03181 1-441): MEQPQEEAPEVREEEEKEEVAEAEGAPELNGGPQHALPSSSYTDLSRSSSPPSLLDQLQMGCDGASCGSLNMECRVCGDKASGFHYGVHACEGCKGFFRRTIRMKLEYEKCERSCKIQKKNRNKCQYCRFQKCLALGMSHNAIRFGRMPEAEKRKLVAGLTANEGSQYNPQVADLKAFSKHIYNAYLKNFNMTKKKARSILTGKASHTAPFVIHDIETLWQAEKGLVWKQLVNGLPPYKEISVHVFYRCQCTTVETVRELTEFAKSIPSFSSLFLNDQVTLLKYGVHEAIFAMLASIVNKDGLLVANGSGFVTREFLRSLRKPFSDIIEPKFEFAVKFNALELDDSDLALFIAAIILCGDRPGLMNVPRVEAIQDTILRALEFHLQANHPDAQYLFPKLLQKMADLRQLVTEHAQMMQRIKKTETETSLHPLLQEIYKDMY
# T1 sequence (P19793 1-462 partner): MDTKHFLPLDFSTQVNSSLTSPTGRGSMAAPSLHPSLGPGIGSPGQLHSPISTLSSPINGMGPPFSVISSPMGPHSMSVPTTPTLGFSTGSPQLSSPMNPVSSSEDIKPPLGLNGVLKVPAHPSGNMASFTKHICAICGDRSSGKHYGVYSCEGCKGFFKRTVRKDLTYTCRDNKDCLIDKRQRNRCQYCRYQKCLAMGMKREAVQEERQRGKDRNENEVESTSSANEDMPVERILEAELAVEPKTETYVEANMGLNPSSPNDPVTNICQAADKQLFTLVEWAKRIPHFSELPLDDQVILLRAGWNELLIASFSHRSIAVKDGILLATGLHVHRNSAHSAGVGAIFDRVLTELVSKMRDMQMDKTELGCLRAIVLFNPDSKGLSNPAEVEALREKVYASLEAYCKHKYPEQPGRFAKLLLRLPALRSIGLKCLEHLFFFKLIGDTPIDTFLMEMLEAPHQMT
# Procedure: (§1) PPARδ-RXRα Heterodimer Ligand Activity
# PPARδ:RXRα:4ERPP/CHO-K1 cells obtained in Reference Example 5a were cultured in HAM F12 medium (produced by NISSUI SEIYAKU) containing 10% fetal bovine serum (produced by Life Technologies, Inc., USA) and then seeded in a 96-well white plate (produced by Corning Costar Corporation, USA) at the density of 2×10^4 cells/well, and cultured in a CO2 gas incubator at 37° C. overnight.
# After washing the 96 well white plate with PBS (Phosphate-buffered saline), 90 μl of HAM F12 medium containing 0.1% fatty acid-free bovine serum albumin (BSA) and 10 μl of test compound were added, and the cells were cultured in a CO2 gas incubator at 37° C. for 48 hrs. After removing the medium, 40 μl of PicaGene 7.5 (produced by Wako Pure Chemical Industries, Ltd.) was added. After stirring, the luciferase activity was determined using Lumistar (produced by BMG Labtechnologies GmbH, Germany).
# The fold induction was calculated from the luciferase activity of each test compound when the luciferase activity in the non-treatment group is taken as 1. The values of the test compound concentration and the fold induction were analyzed using PRISM 2.01 (produced by GraphPad Software Inc. USA) to calculate the EC50 values, the effective concentration of a test compound for 50% of the maximum fold induction. […]
# PPARδ-RXRα heterodimer [4] = biological target: T1, PPARδ-RXRα heterodimer; experiment: PPARδ-RXRα heterodimer ligand activity (luciferase reporter, transfected COS-1 cells); type: cell-based; parameters: expressed in transfected cells; host or cells: COS-1 (transient, lipofectamine); details: concentration for 50% of maximum fold induction of luciferase, 48 hrs
# Procedure: as §1
# The COS-1 cells obtained in Reference Example 9a were recovered, suspended in DMEM medium containing 0.1% fatty acid-free bovine serum albumin (BSA)(manufactured by Wako Pure Chemical Industries, Ltd.) (Nikken Biomedical Laboratory) and seeded in each well of a 96-well white plate (manufactured by Corning Costar Corporation, USA) at the density of 2×10^4 cells/well ([…]). Then, the test Compound ([…]) was added and the cells were cultured at 37° C., 5% CO2 for 48 hrs. The medium was removed from the 96-well white plate and PicaGine LT7.5 ([…], Wako Pure Chemical Industries) was added. After stirring, luciferase activity was measured using 1420 ARVO Multilabel Counter (Wallac)).
# The fold induction was calculated from the luciferase activity of the test compound when the luciferase activity of the non-treatment group is taken as 1. The values of the test compound concentration and the fold induction were analyzed using PRISM 2.01 (produced by GraphPad Software Inc. USA) to calculate the EC50 values, the effective concentration of a test compound for 50% of the maximum fold induction.
# Introduction of Plasmid and Reporter Plasmid for Expression of Human PPARδ, RXRα into COS-1 Cell […]
melting point [°C],EC50 (PPARδ-RXRα heterodimer [3]) [nM],EC50 (PPARδ-RXRα heterodimer [4]) [nM],Compound,"inhibition in vivo at 0.01 % in diet (KKA^y mice [1]; percent reduction of blood glucose level vs non-treatment group (100%), read-out: Hypoglycemic action (%)) [%]","inhibition in vivo at 0.01 % in diet (KKA^y mice [1]; percent reduction of blood triglyceride level vs non-treatment group (100%), read-out: Hypolipidemic action (%)) [%]",change in vivo at 0.01 % in diet (KKA^y mice [2]; percent increase of index [(HDL cholesterol/total cholesterol)×100] vs non-treatment group (100%)) [%],inhibition in vivo at 0.01 % in diet (KKA^y mice [2]; percent reduction of total cholesterol level vs non-treatment group (100%)) [%]
121 to 122,670,,"Cc1oc(-c2ccccc2)nc1COc1ccc(Sc2nc(-c3ccccc3)c(CCC(=O)O)s2)cc1 [Example 12, 3-[2-[4-(5-methyl-2-phenyl-4-oxazolylmethoxy)phenylthio]-4-phenyl-5-thiazolyl]propionic acid]",52,56,15,22
,,680,"Cc1nc(SCc2ccc(OCc3nc(-c4ccccc4)oc3C)cc2)sc1CC(=O)O [Example 58, [4-methyl-2-[4-(5-methyl-2-phenyl-4-oxazolylmethoxy)benzylthio]thiazol-5-yl]acetic acid]",,,,
,,260,"Cc1nc(SCc2cccc(OCc3nc(-c4ccccc4)oc3C)c2)sc1CC(=O)O [Example 60, [4-methyl-2-[3-(5-methyl-2-phenyl-4-oxazolylmethoxy)benzylthio]thiazol-5-yl]acetic acid]",,,,
